Data on eleven compounds can be found in ChEMBL document CHEMBL4414583, “Octahydro-Protoberberine and Protoemetine-Type Alkaloids from the Stems of Alangium salviifolium and Their Cytotoxicity” (J Nat Prod, 2019).

Holding throughout (format): functional, cell-based
Experiment [1] relates to SK-OV-3. The experiment is described as follows: Cytotoxicity against human SKOV3 cells assessed as reduction in cell viability incubated for 72 hrs by MTT assay. Particulars: SK-OV-3, 72 h.
In experiment [2] the test system is HeLa. The experiment is described as follows: Cytotoxicity against human HeLa cells assessed as reduction in cell viability incubated for 72 hrs by MTT assay. (Tetrazolium dyes change colour on reduction, which living cells bring about.)
Experiment [3] has as its system A549. In words: Cytotoxicity against human A549 cells assessed as reduction in cell viability incubated for 72 hrs by MTT assay. Particulars: A549, 72 h.

Structures are written as SMILES.

By IC50 is commonly meant the concentration that inhibits the measured activity by half. Consider `CC[C@H]1CN2CCc3cc(OC)c(OC)cc3[C@@H]2C[C@@H]1C[C@H]1NCCc2c1[nH]c1ccccc21`, for which the 50% inhibitory concentration (IC50) in experiment [1] was 0.003 µM; in experiment [2] it was 0.1 µM.
Take `CC[C@H]1CN2CCc3c(cc(OC)c(OC)c3O)[C@@H]2C[C@@H]1C[C@H]1NCCc2c1[nH]c1ccccc21`: the IC50 in experiment [1] amounted to 0.2 µM; in experiment [3], 3 µM; in experiment [2] it was 8.2 µM.
On the same counts, the results for `CC[C@H]1CN2CCc3c(cc(OC)c(OC)c3O)[C@@H]2C[C@@H]1C/C=[N+](/[O-])CC` are 5.2 µM, above 10 µM and above 10 µM.
For the compound `COc1cc2c(cc1O)[C@@H]1C[C@@H]3CC=CC[C@H]3CN1CC2`, the values for the IC50 in experiment [1], in experiment [3] and in experiment [2] were 13.9 µM, 12.5 µM and 9.2 µM, respectively.
Taken in the same sequence, the figures for `CC[C@H]1CN2CCc3cc(OC)c(O)cc3[C@@H]2C[C@@H]1CCO` were 0.06 µM, 0.2 µM and 0.01 µM.
Taken in the same sequence, the figures for `CC[C@H]1CN2CCc3cc(OC)c(OC)cc3[C@@H]2C[C@@H]1CCO` were 0.1 µM, 0.3 µM and 1.2 µM.
On the same counts, the results for `CC[C@H]1CN2CCc3c(cc(OC)c(OC)c3O)[C@@H]2C[C@@H]1CCO` are 3.6 µM, 2.1 µM and 5.3 µM.
As to `CO[C@@H]1C=C[C@@]23c4cc5c(cc4CN(C[C@@H]2O)[C@H]3C1)OCO5` [(+)-HAEMANTHAMINE], the IC50 in experiment [1] came out at 3.7 µM; in experiment [3] it was 3 µM; in experiment [2], 1.3 µM.
In the case of `CC[C@H]1CN2CCc3cc(OC)c(OC)cc3[C@@H]2C[C@@H]1C[C@H]1NCCc2cc(O)c(OC)cc21` [CEPHAELINE], the IC50 stood at 0.1 µM in experiment [1], 3 µM in experiment [3] and 7.6 µM in experiment [2].
As for `CC[C@H]1CN2CCc3cc(OC)c(OC)cc3[C@@H]2C[C@@H]1C[C@@H]1NCCc2cc(O)c(OC)cc21` [ISOCEPHAELINE], the IC50 was 3.9 µM in experiment [1], 2.7 µM in experiment [3] and 9.4 µM in experiment [2].
Taken in the same sequence, the figures for `CC[C@H]1CN2CCc3cc(OC)c(OC)cc3[C@@H]2C[C@@H]1C[C@H]1NCCc2c1[nH]c1ccc(O)cc21` [TUBULOSINE] were 0.4 µM, 2.1 µM and above 10 µM.
